Measurements reported in US20260274829A1, “NEW E3 UBIQUITIN LIGASE LIGAND, PROTEIN DEGRADATION AGENT AND USE THEREOF” (GLUETACS THERAPEUTICS (SHANGHAI) CO., LTD., priority 2023, published 2026).
pIC50: −log10 of the molar value.

Target: T1, human Cereblon WT GST-tagged protein (Homo sapiens, UniProt Q96SW2)
T1 construct: purchased CISBIO 64BDCRBNPEH
Test: CRBN binding, HTRF CEREBLON BINDING kit
Details: CRBN binding, HTRF CEREBLON BINDING kit
Description: The CEREBLON BINDING kits (specification: 10,000 tests; product number: Catalog #64BDCRBNPEH; CISBIO company) was used to determine the CRBN binding ability of the compounds to be tested through a HTRF method (homogeneous time-resolved fluorescence). The specific methods are as follows: • 1. […] Then, 2.5 μL of human Cereblon WT GST-tagged protein solution was added to each well. Finally, 5 μL of the thoroughly mixed Thalidomide-Re reagent and GST Eu antibody working solution were added to each of the aforementioned wells. […] The blank control wells were sequentially added with 2.5 μL of diluent #9 (1×) solution, 2.5 μL of binding buffer, and 5 μL of thoroughly mixed Thalidomide-Re reagent and GST Eu antibody working solution. • 4. After sealing and incubating the solutions in the aforementioned wells at room temperature for 3 hours, the absorbance values at emission wavelengths of 620 nm and 665 nm were detected by the HTRF method using a Spark microplate reader (V3.1 SP1).
The corresponding CRBN binding inhibition rate was calculated using the following method:
[formula] [formula] [formula] • Note: OD 665 nmcompound is the absorbance value of each well of the compounds to be tested of the present disclosure at an emission wavelength of 665 nm. • OD 620 nmcompound is the absorbance value of each well of the compounds to be tested of the present disclosure at an emission wavelength of 620 nm. • OD 665 nmcontrol is the absorbance value of the blank control well at an emission wavelength of 665 nm. • OD 620 nmcontrol is the absorbance value of the blank control well at an emission wavelength of 620 nm. • OD 665 nmStd0 is the absorbance value of the solvent control well at an emission wavelength of 665 nm. • OD 620 nmStd0 is the absorbance value of the solvent control well at an emission wavelength of 620 nm.

T1 sequence (Q96SW2 whole entry): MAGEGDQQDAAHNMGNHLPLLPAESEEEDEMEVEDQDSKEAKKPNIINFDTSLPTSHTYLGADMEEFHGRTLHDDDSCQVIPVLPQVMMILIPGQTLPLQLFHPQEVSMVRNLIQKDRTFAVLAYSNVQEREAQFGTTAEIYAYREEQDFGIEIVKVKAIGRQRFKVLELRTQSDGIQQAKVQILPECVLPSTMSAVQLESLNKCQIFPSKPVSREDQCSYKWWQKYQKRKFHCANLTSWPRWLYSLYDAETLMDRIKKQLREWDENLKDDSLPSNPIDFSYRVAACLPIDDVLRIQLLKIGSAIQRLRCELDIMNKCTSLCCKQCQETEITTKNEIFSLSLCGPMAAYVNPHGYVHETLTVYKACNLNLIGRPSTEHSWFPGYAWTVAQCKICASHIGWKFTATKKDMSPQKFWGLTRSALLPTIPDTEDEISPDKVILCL

| SMILES | pIC50 |
| --- | --- |
| O=C1CCN(c2ccc(CN3CCC(N4CCN(c5ccc6c(c5)nc(NC(=O)c5cccc(C(F)(F)F)c5)n6[C@H]5CC[C@@H](CO)CC5)CC4)CC3)cc2)C(=O)N1 [GT-05021, N-(5-(4-(1-(4-(2,4-dioxotetrahydropyrimidin-1(2H)-yl)benzyl)piperidin-4-yl)piperazin-1-yl)-1-((1s,4s)-4-(hydroxymethyl)cyclohexyl)-1H-benzo[d]imidazol-2-yl)-3-(trifluoromethyl)benzamide] | 5.72 to 6.00 |
| CN(Cc1cc(C2CCC(=O)NC2=O)cnc1F)C1CCN(c2ccc(-c3cc(F)c4c(c3)C(=O)N(C(C(=O)Nc3nccs3)c3ncn5c3CCC5)C4)cc2)CC1 (stereo not shown) [GT-07560, 2-(6,7-dihydro-5H-pyrrolo[1,2-c]imidazol-1-yl)-2-(6-(4-(4-(((5-(2,6-dioxopiperidin-3-yl)-2-fluoropyridin-3-yl)methyl)(methyl)amino)piperidin-1-yl)phenyl)-4-fluoro-1-oxoisoindolin-2-yl)-N-(thiazol-2-yl)acetamide] | > 6.30 |
| O=C1CCN(c2ccc(CN3C4CCC3CN(c3ccc(-c5cc(F)c6c(c5)C(=O)N(C(C(=O)Nc5nccs5)c5ncn7c5CCC7)C6)cc3)C4)nc2)C(=O)N1 (stereo not shown) [GT-06255, 2-(6,7-dihydro-5H-pyrrolo[1,2-c]imidazol-1-yl)-2-(6-(4-(8-((5-(2,4-dioxotetrahydropyrimidin-1(2H)-yl)pyridin-2-yl)methyl)-3,8-diazabicyclo[3.2.1]octan-3-yl)phenyl)-4-fluoro-1-oxoisoindolin-2-yl)-N-(thiazol-2-yl)acetamide] | > 6.30 |
| COc1cc2nn(C3CCN(Cc4ccc(C5CCC(=O)NC5=O)c(F)c4)CC3)cc2cc1NC(=O)c1cccc(C(F)(F)F)c1 (stereo not shown) [GT-04748, N-(2-(1-(4-(2,6-dioxopiperidin-3-yl)-3-fluorobenzyl)piperidin-4-yl)-6-methoxy-2H-indazol-5-yl)-3-(trifluoromethyl)benzamide] | 5.72 to 6.00 |
| O=C1CCC(c2ccc(CN3CCC(N4CCN(c5ccc(-c6cc(F)c7c(c6)C(=O)N(C(C(=O)Nc6nccs6)c6ncn8c6CCC8)C7)cc5)CC4)CC3)cc2)C(=O)N1 (stereo not shown) [GT-06326, 2-(6,7-dihydro-5H-pyrrolo[1,2-c]imidazol-1-yl)-2-(6-(4-(4-(1-(4-(2,6-dioxopiperidin-3-yl)benzyl)piperidin-4-yl)piperazin-1-yl)phenyl)-4-fluoro-1-oxoisoindolin-2-yl)-N-(thiazol-2-yl)acetamide] | 6.00 to 6.30 |
| CCc1cc2c(cc1N1CCC(N3CCN(Cc4ccc(N5CCC(=O)NC5=O)cn4)CC3)CC1)C(C)(C)c1[nH]c3cc(C#N)ccc3c1C2=O [GT-07311, 8-(4-(4-((5-(2,4-dioxotetrahydropyrimidin-1(2H)-yl)pyridin-2-yl)methyl)piperazin-1-yl)piperidin-1-yl)-9-ethyl-6,6-dimethyl-11-oxo-6,11-dihydro-5H-benzo[b]carbazole-3-carbonitrile] | 6.00 to 6.30 |
| NC(=O)c1ncc(N2CCCCC2)nc1Nc1ccc(C2CCN(Cc3ccc(C4CCC(=O)NC4=O)c(F)c3)CC2)cc1 (stereo not shown) [GT-04786, 3-((4-(1-(4-(2,6-dioxopiperidin-3-yl)-3-fluorobenzyl)piperidin-4-yl)phenyl)amino)-5-(piperidin-1-yl)pyrazine-2-carboxamide] | > 6.30 |
| O=C1CCN(c2ccc(CN3C[C@@H]4C[C@H]3CN4c3ccc(-c4cc(F)c5c(c4)C(=O)N(C(C(=O)Nc4nccs4)c4ncn6c4CCC6)C5)cc3)nc2)C(=O)N1 (stereo partly drawn) [GT-05119, 2-(6,7-dihydro-5H-pyrrolo[1,2-c]imidazol-1-yl)-2-(6-(4-((1S,4S)-5-((5-(2,4-dioxotetrahydropyrimidin-1(2H)-yl)pyridin-2-yl)methyl)-2,5-diazabicyclo[2.2.1]heptan-2-yl)phenyl)-4-fluoro-1-oxoisoindolin-2-yl)-N-(thiazol-2-yl)acetamide] | 6.00 to 6.30 |

Results, then the molecule that gave them:

| pIC50 | SMILES |
| --- | --- |
| 5.72 to 6.00 | O=C1CCC(Nc2cccc(CN3CCC(N4CCN(c5ccc(-c6cc(F)c7c(c6)C(=O)N(C(C(=O)Nc6nccs6)c6ncn8c6CCC8)C7)cc5)CC4)CC3)c2)C(=O)N1 (stereo not shown) [GT-06331, 2-(6,7-dihydro-5H-pyrrolo[1,2-c]imidazol-1-yl)-2-(6-(4-(4-(1-(3-((2,6-dioxopiperidin-3-yl)amino)benzyl)piperidin-4-yl)piperazin-1-yl)phenyl)-4-fluoro-1-oxoisoindolin-2-yl)-N-(thiazol-2-yl)acetamide] |
| 5.72 to 6.00 | COc1cc(N2CCC(N3CCN(Cc4ccc(C5CCC(=O)NC5=O)cc4)CC3)CC2)c(C)cc1Nc1ncc(Br)c(Nc2ccc3nccnc3c2P(C)(C)=O)n1 (stereo not shown) [GT-05999, 3-(4-((4-(1-(4-((5-bromo-4-((5-(dimethylphosphoryl)quinoxalin-6-yl)amino)pyrimidin-2-yl)amino)-5-methoxy-2-methylphenyl)piperidin-4-yl)piperazin-1-yl)methyl)phenyl)piperidine-2,6-dione] |
| 6.00 to 6.30 | CC(C)(O)c1cc2nc(C3CCN(Cc4cccc(N5CCC(=O)NC5=O)c4)CC3)sc2cc1NC(=O)c1cccc(C(F)(F)F)n1 [GT-05765, N-(2-(1-(3-(2,4-dioxotetrahydropyrimidin-1(2H)-yl)benzyl)piperidin-4-yl)-5-(2-hydroxypropan-2-yl)benzo[d]thiazol-6-yl)-6-(trifluoromethyl)picolinamide] |
| > 6.30 | Nc1nnc(-c2ccccc2O)cc1N1CCN(Cc2ccc(C3CCC(=O)NC3=O)cc2)CC1 (stereo not shown) [GT-05015, 3-(4-((4-(3-amino-6-(2-hydroxyphenyl)pyridazin-4-yl)piperazin-1-yl)methyl)phenyl)piperidine-2,6-dione] |
| 5.72 to 6.00 | O=C1CCN(c2ccc(CN3CCC(N4CCN(c5ccc(-c6cc(F)c7c(c6)C(=O)N(C(C(=O)Nc6nccs6)c6ncn8c6CCC8)C7)cc5)CC4)CC3)nc2)C(=O)N1 (stereo not shown) [GT-06329, 2-(6,7-dihydro-5H-pyrrolo[1,2-c]imidazol-1-yl)-2-(6-(4-(4-(1-((5-(2,4-dioxotetrahydropyrimidin-1(2H)-yl)pyridin-2-yl)methyl)piperidin-4-yl)piperazin-1-yl)phenyl)-4-fluoro-1-oxoisoindolin-2-yl)-N-(thiazol-2-yl)acetamide] |
| 5.72 to 6.00 | COc1cc(N2CCN(Cc3cccc(N4CCC(=O)NC4=O)c3)CC2)ccc1Nc1ncc(Cl)c(Nc2ccccc2P(C)(C)=O)n1 [GT-07348, 1-(3-((4-(4-((5-chloro-4-((2-(dimethylphosphoryl)phenyl)amino)pyrimidin-2-yl)amino)-3-methoxyphenyl)piperazin-1-yl)methyl)phenyl)dihydropyrimidine-2,4(1H,3H)-dione] |
| 5.72 to 6.00 | COc1cc(N2CCC(N3CCN(Cc4cccc(N5CCC(=O)NC5=O)c4)CC3)CC2)c(C)cc1Nc1ncc(Br)c(Nc2ccc3nccnc3c2P(C)(C)=O)n1 [GT-04260, 1-(3-((4-(1-(4-((5-bromo-4-((5-(dimethylphosphoryl)quinoxalin-6-yl)amino)pyrimidin-2-yl)amino)-5-methoxy-2-methylphenyl)piperidin-4-yl)piperazin-1-yl)methyl)phenyl)dihydropyrimidine-2,4(1H,3H)-dione] |
| 6.00 to 6.30 | CN1CCN([C@@H]2CCCN(c3cnc(C(N)=O)c(Nc4ccc(C5CCN(Cc6ccc(N7CCC(=O)NC7=O)cc6F)CC5)cc4)n3)C2)C1=O [GT-04803, (R)-3-((4-(1-(4-(2,4-dioxotetrahydropyrimidin-1(2H)-yl)-2-fluorobenzyl)piperidin-4-yl)phenyl)amino)-5-(3-(3-methyl-2-oxoimidazolidin-1-yl)piperidin-1-yl)pyrazine-2-carboxamide] |
| > 6.30 | O=C1CCC(c2ccc(CN3CCC(n4cc(NC(=O)c5cnn6ccc(N7C[C@H]8C[C@@H]7CO8)nc56)c(C(F)F)n4)CC3)cc2)C(=O)N1 (stereo partly drawn) [GT-05050, 5-((1R,4R)-2-oxa-5-azabicyclo[2.2.1]heptan-5-yl)-N-(3-(difluoromethyl)-1-(1-(4-(2,6-dioxopiperidin-3-yl)benzyl)piperidin-4-yl)-1H-pyrazol-4-yl)pyrazolo[1,5-a]pyrimidine-3-carboxamide] |
| 6.00 to 6.30 | COc1cc2nn(C3CCN(Cc4cccc(NC5CCC(=O)NC5=O)c4)CC3)cc2cc1NC(=O)c1cccc(C(F)(F)F)n1 (stereo not shown) [GT-04763, N-(2-(1-(3-((2,6-dioxopiperidin-3-yl)amino)benzyl)piperidin-4-yl)-6-methoxy-2H-indazol-5-yl)-6-(trifluoromethyl)picolinamide] |
| 6.00 to 6.30 | CN(Cc1ccnc(N2CCC(=O)NC2=O)c1)C1CCN(c2ccc(-c3cc(F)c4c(c3)C(=O)N(C(C(=O)Nc3nccs3)c3ncn5c3CCC5)C4)cc2)CC1 (stereo not shown) [GT-07383, 2-(6,7-dihydro-5H-pyrrolo[1,2-c]imidazol-1-yl)-2-(6-(4-(4-(((2-(2,4-dioxotetrahydropyrimidin-1(2H)-yl)pyridin-4-yl)methyl)(methyl)amino)piperidin-1-yl)phenyl)-4-fluoro-1-oxoisoindolin-2-yl)-N-(thiazol-2-yl)acetamide] |
